Experimental data as given in PubChem BioAssay (NCI).
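Cultured in 96-well plates, cells were exposed to test compound for 48 hours across five concentrations. GI50 is the concentration that inhibits growth by half. Definition used: TGI = concentration required for complete inhibition of growth.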

What was measured:
Experiment in all cases: growth of human tumour cells (NCI), 48 h
A549 NSCLC = system: A549 NSCLC
786-0 renal = system: 786-0 renal
SK-MEL-2 melanoma = system: SK-MEL-2 melanoma
COLO 205 colon = system: COLO 205 colon
IGROV1 ovarian = system: IGROV1 ovarian
CCRF-CEM leukemia = system: CCRF-CEM leukemia
SNB-75 CNS = system: SNB-75 CNS
HOP-62 NSCLC = system: HOP-62 NSCLC
SF-268 CNS = system: SF-268 CNS
NCI-H522 lung = system: NCI-H522 lung

| Compound | TGI (A549 NSCLC) [µM] | TGI (786-0 renal) [µM] | TGI (SK-MEL-2 melanoma) [µM] | TGI (COLO 205 colon) [µM] | TGI (IGROV1 ovarian) [µM] | TGI (CCRF-CEM leukemia) [µM] | TGI (SNB-75 CNS) [µM] | TGI (HOP-62 NSCLC) [µM] | TGI (SF-268 CNS) [µM] | TGI (NCI-H522 lung) [µM] | GI50 (A549 NSCLC) [µM] | GI50 (786-0 renal) [µM] | GI50 (NCI-H522 lung) [µM] | GI50 (SK-MEL-2 melanoma) [µM] | GI50 (COLO 205 colon) [µM] | GI50 (CCRF-CEM leukemia) [µM] | GI50 (SNB-75 CNS) [µM] | GI50 (HOP-62 NSCLC) [µM] | GI50 (SF-268 CNS) [µM] | GI50 (IGROV1 ovarian) [µM] |
| --- | --- | --- | --- | --- | --- | --- | --- | --- | --- | --- | --- | --- | --- | --- | --- | --- | --- | --- | --- | --- |
| COc1c(Sc2ccccc2)cc(Sc2ccccc2)c2cccnc12 | > 100 | 65.9 | 42.6 | 39 | > 100 | 54.5 | 66 | > 100 | > 100 |  |  |  |  |  |  |  |  |  |  |  |
| O=C(O)Cc1ccccc1CCc1ccccc1Cl | > 100 | > 100 | 91.7 | > 100 | > 100 | > 100 | > 100 |  | > 100 | > 100 |  |  |  |  |  |  |  |  |  |  |
| C/C=C(/C)c1cnc(CC(C)C)c(=O)[nH]1 | > 100 | > 100 | > 100 | > 100 | > 100 | > 100 | > 100 | > 100 | > 100 |  |  |  |  |  |  |  |  |  |  |  |
| CN1c2ccccc2S(=O)(=O)n2c(CCc3ccccc3)nnc21 | > 100 | > 100 | > 100 | > 100 | > 100 | > 100 |  | > 100 | > 100 | > 100 |  |  |  |  |  |  |  |  |  |  |
| CC[C@H](Nc1nc(N)nc(C2CC2)c1C#N)c1nc2cccc(NCc3ccc(C(=O)NO)cc3)c2c(=O)n1-c1ccccc1 | 4.52 | 3.36 | 6.75 | 5.75 |  | > 100 | 5.43 | 4.29 | 4.12 | 4.67 | 1.93 | 1.68 | 1.69 | 2.44 | 2.24 | 0.734 | 1.57 | 1.63 | 1.74 |  |
| CCN(CC)CCOc1c(OC)c(Br)cc2c(C)c(C(=O)OC)oc12 | 20.2 | 6.04 | 50 | 3.68 | 7.05 | 0.72 |  |  | 5.08 | 11.9 | 10 | 1.71 | 1.32 | 3.17 | 0.925 | 0.154 |  |  | 1.33 | 1.4 |
| O=c1cc(-c2ccccn2)[nH]c2cc(F)ccc12 | > 100 | > 100 |  | > 100 | > 100 |  | > 100 | > 100 | > 100 | > 100 |  |  |  |  |  |  |  |  | 29.5 |  |
| CS(=O)(=O)NNS(=O)(=O)c1ccc(Cl)cc1 | > 100 | > 100 | > 100 | > 100 | > 100 | > 100 | > 100 | > 100 |  | > 100 |  |  |  |  |  |  |  |  |  |  |
| COC(=O)c1ccc(C(=O)OC)c2nc3cc(C)ccc3nc12 | > 100 | > 100 | > 100 | > 100 | > 100 | > 100 | > 100 | > 100 | > 100 |  |  |  |  |  |  |  |  |  |  |  |
| COc1cc(C2c3cc4c(cc3[C@@H](OCCN(C)C)C3COC(=O)[C@H]23)OCO4)cc(OC)c1O (stereo partly drawn) |  | 0.663 | 4.03 | 16 | 4.97 |  | 3.75 | 0.241 | 3.83 | 1.7 |  |  |  |  |  |  |  |  |  |  |
| CC1(C)C(=O)C=CC2(C)C1CC(O)C1(C)C2CCC2(C)C(c3ccoc3)OC(=O)C3OC321 (stereo not drawn) | 69.8 | 28.3 | 35.1 | 50.3 | 33.9 | 57.5 | 39.5 | 85.7 |  | 27.1 |  |  |  |  |  |  |  |  |  |  |
| CC(/C=C/NNC1=NC(c2ccccc2)C(c2ccccc2)=NN1)Sc1ccccc1N (stereo not drawn) | 28.7 | 13.6 | 21.2 | 31 | 30 |  | 14 | 33.7 | 16 | 11.7 |  |  |  |  |  |  |  |  |  |  |
| CCOC(=O)c1c2c(n(Cc3ccccc3)c1C)-c1nc(Cc3ccccc3)[nH]c1C(=O)C2=O | 7.15 | 3.29 | 4.13 | 3.33 | 2.68 | 2.97 | 2.81 | 3.45 | 4.59 |  | 2.5 | 1.77 |  | 1.69 | 1.83 | 0.962 | 1.49 | 1.75 | 1.91 | 1.24 |
| CCCCCCNC(=O)n1cc(F)c(=O)[nH]c1=O | > 100 | 23.4 | 35.2 | 18.4 |  | 26.7 | 43 | 21.5 | 87.9 | 25 | 0.738 | 10.6 | 10.7 | 12 | 2.09 | 3.2 | 7.51 | 7.09 | 9.07 |  |
| NC(=O)c1csc(C2CCC(CO)O2)n1 (stereo not drawn) | > 100 | > 100 | > 100 | > 100 | > 100 | > 100 |  | > 100 | > 100 | > 100 |  |  |  |  |  |  |  |  |  |  |
